Where a name gives a salt, the structure may show the parent alone.
Legend:
[1] = Serum lipid and blood glucose level in experimental sclerosis rabbits; format: in vivo, Male Japanese white rabbits; conditions: rabbit, oral 3 mg once per day, after five months
Source text: (§1) In this example, the effects of the present compound on the wall of a blood vessel, a serum lipid and a blood glucose level were studied on the experimental sclerosis rabbits from the determination of the arterial sclerosis action, the assay of the components constituting the wall of the blood vessel and the transitional analysis of the damage of the blood wall with time.
(§2) Male Japanese white rabbits (25 months age) were randomly divided into three groups. A normal diet was given to one group (called hereafter "healthy group"). The remaining two groups were fed with 100 g/day of a high α-starch, high salinity and low protein, sclerosis diet containing 0.3% cholesterol (manufactured by Funabashi Farm), simultaneously injected intramuscularly with norepinephrine (3 mg) and bred for 150 days. One group of them was called hereafter "sclerosis group". […] Every 50 days, Aortic Pulse Wave Velocity (PWV) was measured to determine a average hardness of aorta of the rabbits. After five months and just before slaughter of the rabbits, blood was drawn to determine cholesterol in blood (T-Cho), triglyceride (TG), β-lipoprotein (β-Lp), HDL choresterol and a blood glucose level. After slaughter, a fifth intercostal pars in the thoracic aorta was extracted and then subjected to formalin fixation and embedding in paraffin. Subsequently, each component of smooth muscle cell (SMC), elastin (EL), collagen (CL), glycosaminoglycan (GAGs), PAS positive substance (PAS), calcium (Ca) and cholesterol (Cho) was histochemically observed and assayed.

Wall of Aorta = experiment: Proportion of components constituting the wall of aorta (histochemical assay, fifth intercostal pars of thoracic aorta); format: in vivo, Male Japanese white rabbits
Source text: as §1, §2

[2] = tested on: experimental sclerosis rabbits; experiment: Change of Aortic Pulse Wave Velocity (ΔPWV) in experimental sclerosis rabbits; format: in vivo, Male Japanese white rabbits
Source text: as §1, §2
PWV is increasing with the advance of growth, maturation and ageing. Thus an increase in PWV value is an indication of arterial sclerosis (see Arterial Sclerosis, vol. 8, No. 1 April 1980, pp 91-95).

in vivo = conditions: mouse, in vivo, po, average
mice = experiment: in vivo; conditions: oral
[3] = rabbit, oral 3 mg once per day, after 150 days

Cl.Cn1cc(OCC(O)CNC(C)(C)C)c2ccccc2c1=O (racemic) [(±)-4-(3-tert.-butylamino-2-hydroxypropoxy)-2-methyl-1 (2H)-isoquinolinone hydrochloride]
Blood glucose level [1]: 162.50 mg/dL
Cholesterol in blood (T-Cho) [1]: 25.25 mg/dL
HDL cholesterol (HDL-C) [1]: 15.44 mg/dL
Triglyceride (TG) [1]: 65.40 mg/dL
β-lipoprotein (β-Lp) [1]: 2.75 mg/dL
Improvement in arterial sclerosis (Wall of Aorta; Table 2, drug administered group): remarkable improvement in arterial sclerosis
Proportion of PAS positive substance (PAS) in the wall of aorta (Wall of Aorta; [3]): 27.83 % E
Proportion of calcium (Ca) in the wall of aorta (Wall of Aorta; [3]): 1.92 % E
Proportion of cholesterol (Cho) in the wall of aorta (Wall of Aorta; [3]): 0.68 % E
Proportion of collagen (CL) in the wall of aorta (Wall of Aorta; [3]): 30.33 % E
Proportion of elastin (EL) in the wall of aorta (Wall of Aorta; [3]): 40.56 % E
Proportion of glycosaminoglycan (GAGs) in the wall of aorta (Wall of Aorta; [3]): 16.03 % E
Proportion of smooth muscle cell (SMC) in the wall of aorta (Wall of Aorta; [3]): 46.72 % E
PWV as compared with the sclerosis group ([2]; 150 days, vs sclerosis group): significantly improved
Δ PWV, 0-50 days ([2]; rabbit, sclerosis diet + norepinephrine i.m., oral capsule 3 mg once per day, 0-50 days): -0.110 m/sec
Δ PWV, 51-100 days ([2]; rabbit, sclerosis diet + norepinephrine i.m., oral capsule 3 mg once per day, 51-100 days): -0.290 m/sec
Δ PWV, 101-150 days ([2]; rabbit, sclerosis diet + norepinephrine i.m., oral capsule 3 mg once per day, 101-150 days): -0.890 m/sec
LD50 (in vivo; female mice): 1290 mg/kg
LD50 (in vivo; male mice): 1390 mg/kg

CC(C)(C)NCC(O)COc1c[nH]c(=O)c2ccccc12 (centres unmarked) [4-(3-tert.-butylamino-2-hydroxypropoxy)-1-isoquinolinonehydrochloride]
LD50, range in parentheses (mice; female mice): 1063 to 1566 mg/kg
LD50, range in parentheses (mice; male mice): 1223 to 1587 mg/kg
LD50 (in vivo; female mice): 1290 mg/kg
LD50 (in vivo; male mice): 1390 mg/kg

Source: US5441962A, “Method for treating hyperlipemia” (priority 1992, dated 1995)
